# Experiments:
# PTPN2 [1] = experiment: HiBiT-Degradation B16F10.4 PTPN2; assay type: cell-based; conditions: B16F10.4 cells, 24.0 hours
# PTPN2 [2] = target: T1, PTPN2 (Homo sapiens, UniProt P17706); experiment: HiBiT-Degradation 293T.109 PTPN2 (Nano-Glo HiBiT Lytic Assay); assay type: cell-based; conditions: 293T.109 (HiBiT-PTPN2) cells, 24.0 hours
# T1 construct: expressed in transfected cells; host or cells: 293T (293T.109 HiBiT-PTPN2 line; parental 293T WT from ATCC)
# T1 sequence (P17706 1-415): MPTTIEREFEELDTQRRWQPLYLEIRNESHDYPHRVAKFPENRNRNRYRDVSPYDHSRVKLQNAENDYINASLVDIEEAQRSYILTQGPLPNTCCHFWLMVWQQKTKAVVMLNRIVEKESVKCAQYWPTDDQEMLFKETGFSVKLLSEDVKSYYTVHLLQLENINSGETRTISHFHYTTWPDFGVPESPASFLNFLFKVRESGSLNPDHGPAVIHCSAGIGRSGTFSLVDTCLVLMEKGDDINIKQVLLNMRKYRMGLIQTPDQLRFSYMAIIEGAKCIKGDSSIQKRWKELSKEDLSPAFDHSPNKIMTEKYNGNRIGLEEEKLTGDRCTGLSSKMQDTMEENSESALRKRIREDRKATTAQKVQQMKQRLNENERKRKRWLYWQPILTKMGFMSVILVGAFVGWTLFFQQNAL
# How it was run: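 Luminescence from a lytic HiBiT read gave PTPN2 levels after 24 h compound exposure at 37° C. Compounds were tested at 11 half-log points from a 10 μM top concentration, in duplicate. The cells were 293T engineered with an N-terminal HiBiT–PTPN2 fusion, plated at 5000 per well, with untreated wells as negative control and no-reagent wells as positive control.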
DC50 (PTPN2 [1]) [nM],DC50 (PTPN2 [2]) [nM],SMILES
200 to 1000,50 to 200,"Cn1c(=O)n([C@@H]2CCC(=O)NC2=O)c2ccc(C3CCN(CC(=O)NCCOc4ccc5cc(O)c(N6CC(=O)NS6(=O)=O)c(F)c5c4)CC3)cc21 [Example 92, 2-[4-[1-[(3R)-2,6-dioxo-3-piperidyl]-3-methyl-2-oxo-benzimidazol-5-yl]-1-piperidyl]-N-[2-[[8-fluoro-6-hydroxy-7-(1,1,4-trioxo-1,2,5-thiadiazolidin-2-yl)-2-naphthyl]oxy]ethyl]acetamide]"
50 to 200,10 to 50,"Cn1c(=O)n([C@H]2CCC(=O)NC2=O)c2ccc(C3CCN(CC(=O)NCCOc4ccc5cc(O)c(N6CC(=O)NS6(=O)=O)c(F)c5c4)CC3)cc21 [Example 93, 2-[4-[1-[(3S)-2,6-dioxo-3-piperidyl]-3-methyl-2-oxo-benzimidazol-5-yl]-1-piperidyl]-N-[2-[[8-fluoro-6-hydroxy-7-(1,1,4-trioxo-1,2,5-thiadiazolidin-2-yl)-2-naphthyl]oxy]ethyl]acetamide]"
200 to 1000,200 to 1000,"CN(c1ccc(C2CCN(CC(=O)NCCOc3ccc4cc(O)c(N5CC(=O)NS5(=O)=O)c(F)c4c3)CC2)cc1)C1CCC(=O)NC1=O (stereo not shown) [Example 94, 2-[4-[4-[(2,6-dioxo-3-piperidyl)-methyl-amino]phenyl]-1-piperidyl]-N-[2-[[8-fluoro-6-hydroxy-7-(1,1,4-trioxo-1,2,5-thiadiazolidin-2-yl)-2-naphthyl]oxy]ethyl]acetamide]"
50 to 200,10 to 50,"Cn1c(=O)n(C2CCC(=O)NC2=O)c2ccc(C3CCN(CCCCCOc4ccc5cc(O)c(N6CC(=O)NS6(=O)=O)c(F)c5c4)CC3)cc21 (stereo not shown) [Example 95, 3-[5-[1-[5-[[8-fluoro-6-hydroxy-7-(1,1,4-trioxo-1,2,5-thiadiazolidin-2-yl)-2-naphthyl]oxy]pentyl]-4-piperidyl]-3-methyl-2-oxo-benzimidazol-1-yl]piperidine-2,6-dione]"
50 to 200,50 to 200,"O=C(CN1CCC(c2ccc(NC3CCC(=O)NC3=O)c(Oc3ccccc3)c2)CC1)NCCOc1ccc2cc(O)c(N3CC(=O)NS3(=O)=O)c(F)c2c1 (stereo not shown) [Example 96, 2-[4-[4-[(2,6-dioxo-3-piperidyl)amino]-3-phenoxy-phenyl]-1-piperidyl]-N-[2-[[8-fluoro-6-hydroxy-7-(1,1,4-trioxo-1,2,5-thiadiazolidin-2-yl)-2-naphthyl]oxy]ethyl]acetamide]"
200 to 1000,50 to 200,"CN(CCOc1ccc2cc(O)c(N3CC(=O)NS3(=O)=O)c(F)c2c1)C(=O)CN1CCC(c2ccc3c(c2)n(C)c(=O)n3C2CCC(=O)NC2=O)CC1 (stereo not shown) [Example 97, 2-[4-[1-(2,6-dioxo-3-piperidyl)-3-methyl-2-oxo-benzimidazol-5-yl]-1-piperidyl]-N-[2-[[8-fluoro-6-hydroxy-7-(1,1,4-trioxo-1,2,5-thiadiazolidin-2-yl)-2-naphthyl]oxy]ethyl]-N-methyl-acetamide]"
50 to 200,10 to 50,"Cn1c(=O)n(C2CCC(=O)NC2=O)c2ccc(C3CCN(CCCCCCOc4ccc5cc(O)c(N6CC(=O)NS6(=O)=O)c(F)c5c4)CC3)cc21 (stereo not shown) [Example 98, 3-[5-[1-[6-[[8-fluoro-6-hydroxy-7-(1,1,4-trioxo-1,2,5-thiadiazolidin-2-yl)-2-naphthyl]oxy]hexyl]-4-piperidyl]-3-methyl-2-oxo-benzimidazol-1-yl]piperidine-2,6-dione]"
50 to 200,50 to 200,"Cn1c(=O)n(C2CCC(=O)NC2=O)c2ccc(N3CCC(CNC(=O)c4ccc5c(F)c(N6CC(=O)NS6(=O)=O)c(O)cc5c4)CC3)cc21 (stereo not shown) [Example 99, N-[[1-[1-(2,6-dioxo-3-piperidyl)-3-methyl-2-oxo-benzimidazol-5-yl]-4-piperidyl]methyl]-5-fluoro-7-hydroxy-6-(1,1,4-trioxo-1,2,5-thiadiazolidin-2-yl)naphthalene-2-carboxamide]"
200 to 1000,200 to 1000,"Cn1c(=O)n(C2CCC(=O)NC2=O)c2ccc(C3CCN(CC(=O)NCCOc4ccc5cc(O)c(N6CC(=O)NS6(=O)=O)c(Cl)c5c4)CC3)cc21 (stereo not shown) [Example 100, N-[2-[[8-chloro-6-hydroxy-7-(1,1,4-trioxo-1,2,5-thiadiazolidin-2-yl)-2-naphthyl]oxy]ethyl]-2-[4-[1-(2,6-dioxo-3-piperidyl)-3-methyl-2-oxo-benzimidazol-5-yl]-1-piperidyl]acetamide]"
≥ 1000,200 to 1000,"O=C1CCC(Nc2ccc(C3CCN(CC(=O)Nc4ccc5c(F)c(N6CC(=O)NS6(=O)=O)c(O)cc5c4)CC3)cc2Oc2ccccc2)C(=O)N1 (stereo not shown) [Example 101, 2-[4-[4-[(2,6-dioxo-3-piperidyl)amino]-3-phenoxy-phenyl]-1-piperidyl]-N-[5-fluoro-7-hydroxy-6-(1,1,4-trioxo-1,2,5-thiadiazolidin-2-yl)-2-naphthyl]acetamide]"
200 to 1000,200 to 1000,Cn1c(=O)n(C2CCC(=O)NC2=O)c2ccc(C3=CCC(CNC(=O)c4ccc5c(F)c(N6CC(=O)NS6(=O)=O)c(O)cc5c4)CC3)cc21 (stereo not shown) [Example 102]
50 to 200,200 to 1000,"Cn1c(=O)n(C2CCC(=O)NC2=O)c2ccc(N3CCC(CC(=O)N4CC=C(c5ccc6cc(O)c(N7CC(=O)NS7(=O)=O)c(F)c6c5)C4)CC3)cc21 (stereo not shown) [Example 103, 3-[5-[4-[2-[3-[8-fluoro-6-hydroxy-7-(1,1,4-trioxo-1,2,5-thiadiazolidin-2-yl)-2-naphthyl]-2,5-dihydropyrrol-1-yl]-2-oxo-ethyl]-1-piperidyl]-3-methyl-2-oxo-benzimidazol-1-yl]piperidine-2,6-dione]"
50 to 200,50 to 200,"Cn1c(=O)n(C2CCC(=O)NC2=O)c2ccc(Nc3ccc(C(=O)Nc4ccc5c(F)c(N6CC(=O)NS6(=O)=O)c(O)cc5c4)cc3)cc21 (stereo not shown) [Example 104, 4-[[1-(2,6-dioxo-3-piperidyl)-3-methyl-2-oxo-benzimidazol-5-yl]amino]-N-[5-fluoro-7-hydroxy-6-(1,1,4-trioxo-1,2,5-thiadiazolidin-2-yl)-2-naphthyl]benzamide]"
10 to 50,10 to 50,"Cn1c(=O)n(C2CCC(=O)NC2=O)c2ccc(Nc3ccc(CC(=O)Nc4ccc5c(F)c(N6CC(=O)NS6(=O)=O)c(O)cc5c4)cc3)cc21 (stereo not shown) [Example 105, 2-[4-[[1-(2,6-dioxo-3-piperidyl)-3-methyl-2-oxo-benzimidazol-5-yl]amino]phenyl]-N-[5-fluoro-7-hydroxy-6-(1,1,4-trioxo-1,2,5-thiadiazolidin-2-yl)-2-naphthyl]acetamide]"
200 to 1000,200 to 1000,Cn1c(=O)n(C2CCC(=O)NC2=O)c2ccc(-c3ccc(CNC(=O)c4ccc5c(F)c(N6CC(=O)NS6(=O)=O)c(O)cc5c4)cc3)cc21 (stereo not shown) [Example 106]
50 to 200,50 to 200,"Cn1c(=O)n(C2CCC(=O)NC2=O)c2ccc(C3CCN(CCS(=O)(=O)N4CC=C(c5ccc6cc(O)c(N7CC(=O)NS7(=O)=O)c(F)c6c5)C4)CC3)cc21 (stereo not shown) [Example 107, 3-(5-(1-(2-((3-(7-(1,1-dioxido-4-oxo-1,2,5-thiadiazolidin-2-yl)-8-fluoro-6-hydroxynaphthalen-2-yl)-2,5-dihydro-1H-pyrrol-1-yl)sulfonyl)ethyl)piperidin-4-yl)-3-methyl-2-oxo-2,3-dihydro-1H-benzo[d]imidazol-1-yl)piperidine-2,6-dione]"
≥ 1000,200 to 1000,"CN(c1ccc(C2CCN(CC(=O)Nc3ccc4c(F)c(N5CC(=O)NS5(=O)=O)c(O)cc4c3)CC2)cc1)C1CCC(=O)NC1=O (stereo not shown) [Example 108, 2-[4-[4-[(2,6-dioxo-3-piperidyl)-methyl-amino]phenyl]-1-piperidyl]-N-[5-fluoro-7-hydroxy-6-(1,1,4-trioxo-1,2,5-thiadiazolidin-2-yl)-2-naphthyl]acetamide]"
50 to 200,200 to 1000,"Cn1c(=O)n(C2CCC(=O)NC2=O)c2ccc(N3CCC(C4CCN(C(=O)COc5ccc6cc(O)c(N7CC(=O)NS7(=O)=O)c(F)c6c5)CC4)CC3)cc21 (stereo not shown) [Example 109, 3-[5-[4-[1-[2-[[8-fluoro-6-hydroxy-7-(1,1,4-trioxo-1,2,5-thiadiazolidin-2-yl)-2-naphthyl]oxy]acetyl]-4-piperidyl]-1-piperidyl]-3-methyl-2-oxo-benzimidazol-1-yl]piperidine-2,6-dione]"
50 to 200,10 to 50,"Cn1c(=O)n(C2CCC(=O)NC2=O)c2ccc(N3CCN(CCn4cc(-c5ccc6cc(O)c(N7CC(=O)NS7(=O)=O)c(F)c6c5)cn4)CC3)cc21 (stereo not shown) [Example 110, 3-[5-[4-[2-[4-[8-fluoro-6-hydroxy-7-(1,1,4-trioxo-1,2,5-thiadiazolidin-2-yl)-2-naphthyl]pyrazol-1-yl]ethyl]piperazin-1-yl]-3-methyl-2-oxo-benzimidazol-1-yl]piperidine-2,6-dione]"
50 to 200,10 to 50,"O=C(CCCCOc1ccc2cc(O)c(N3CC(=O)NS3(=O)=O)c(F)c2c1)NCCCc1ccc2c3c(cccc13)C(=O)N2C1CCC(=O)NC1=O (stereo not shown) [Example 111, N-[3-[1-(2,6-dioxo-3-piperidyl)-2-oxo-benzo[cd]indol-6-yl]propyl]-5-[[8-fluoro-6-hydroxy-7-(1,1,4-trioxo-1,2,5-thiadiazolidin-2-yl)-2-naphthyl]oxy]pentanamide]"
